# Measured values reported in patent publication US20250231185A1, “Coronavirus T Cell Epitopes, Megapools and Uses Thereof” (La Jolla Institute for Immunology, priority 2021, published 2025).
# Test system: CD4+ T cells
# Test: Meta-analysis of published SARS-CoV-2 CD4 T cell epitope data curated in the IEDB (25 studies)
# Type: cell-based, human
# Settings: CD4RE megapool peptides (non-spike SARS-CoV-2 CD4 epitopes); dominant = recognized by 3 or more donors/different studies
row,Substance,Dominant
1,2622 (TNILLNVPLHGTILT) [compound 2622],Yes (more dominant epitopes are defined by being recognized by 3 or more donors/different studies)
2,2623 (SELVIGAVILRGHLR) [compound 2623],Yes (more dominant epitopes are defined by being recognized by 3 or more donors/different studies)
3,2624 (GAVILRGHLRIAGHHLGR) [compound 2624],Yes (more dominant epitopes are defined by being recognized by 3 or more donors/different studies)
4,2625 (LRGHLRIAGHHLGRC) [compound 2625],Yes (more dominant epitopes are defined by being recognized by 3 or more donors/different studies)
5,2626 (RGHLRIAGHHLGRCD) [compound 2626],Yes (more dominant epitopes are defined by being recognized by 3 or more donors/different studies)
6,2627 (IAGHHLGRCDIKDLP) [compound 2627],Yes (more dominant epitopes are defined by being recognized by 3 or more donors/different studies)
7,2629 (IKDLPKEITVATSRT) [compound 2629],Yes (more dominant epitopes are defined by being recognized by 3 or more donors/different studies)
8,2630 (KEITVATSRTLSYYK) [compound 2630],Yes (more dominant epitopes are defined by being recognized by 3 or more donors/different studies)
9,2631 (TSRTLSYYKLGASQRVA) [compound 2631],Yes (more dominant epitopes are defined by being recognized by 3 or more donors/different studies)
10,2632 (SRTLSYYKLGASQRV) [compound 2632],Yes (more dominant epitopes are defined by being recognized by 3 or more donors/different studies)
11,2634 (SYYKLGASQRVAGDS) [compound 2634],Yes (more dominant epitopes are defined by being recognized by 3 or more donors/different studies)
12,2635 (LGASQRVAGDSGFAA) [compound 2635],Yes (more dominant epitopes are defined by being recognized by 3 or more donors/different studies)
13,2636 (SGFAAYSRYRIGNYK) [compound 2636],Yes (more dominant epitopes are defined by being recognized by 3 or more donors/different studies)
14,2637 (ASWFTALTQHGKEDL) [compound 2637],Yes (more dominant epitopes are defined by being recognized by 3 or more donors/different studies)
15,2638 (SWFTALTQHGKEDLK) [compound 2638],Yes (more dominant epitopes are defined by being recognized by 3 or more donors/different studies)
16,2639 (DDQIGYYRRATRRIR) [compound 2639],Yes (more dominant epitopes are defined by being recognized by 3 or more donors/different studies)
17,2640 (IGYYRRATRRIRGGD) [compound 2640],Yes (more dominant epitopes are defined by being recognized by 3 or more donors/different studies)
18,2641 (YYRRATRRIRGGDGK) [compound 2641],Yes (more dominant epitopes are defined by being recognized by 3 or more donors/different studies)
19,2643 (RWYFYYLGTGPEAGL) [compound 2643],Yes (more dominant epitopes are defined by being recognized by 3 or more donors/different studies)

row,Substance,Dominant
1,2644 (NKDGIIWVATEGALN) [compound 2644],Yes (more dominant epitopes are defined by being recognized by 3 or more donors/different studies)
2,2645 (KDGIIWVATEGALNT) [compound 2645],Yes (more dominant epitopes are defined by being recognized by 3 or more donors/different studies)
3,2646 (AIVLQLPQGTTLPKG) [compound 2646],Yes (more dominant epitopes are defined by being recognized by 3 or more donors/different studies)
4,2647 (AGNGGDAALALLLLD) [compound 2647],Yes (more dominant epitopes are defined by being recognized by 3 or more donors/different studies)
5,2648 (DAALALLLLDRLNQL) [compound 2648],Yes (more dominant epitopes are defined by being recognized by 3 or more donors/different studies)
6,2649 (LLLLDRLNQLESKMS) [compound 2649],Yes (more dominant epitopes are defined by being recognized by 3 or more donors/different studies)
7,2650 (AAEASKKPRQKRTAT) [compound 2650],Yes (more dominant epitopes are defined by being recognized by 3 or more donors/different studies)
8,2651 (KKPRQKRTATKAYNV) [compound 2651],Yes (more dominant epitopes are defined by being recognized by 3 or more donors/different studies)
9,2652 (KRTATKAYNVTQAFG) [compound 2652],Yes (more dominant epitopes are defined by being recognized by 3 or more donors/different studies)
10,2654 (LIRQGTDYKHWPQIA) [compound 2654],Yes (more dominant epitopes are defined by being recognized by 3 or more donors/different studies)
11,2655 (YKHWPQIAQFAPSAS) [compound 2655],Yes (more dominant epitopes are defined by being recognized by 3 or more donors/different studies)
12,2656 (WPQIAQFAPSASAFF) [compound 2656],Yes (more dominant epitopes are defined by being recognized by 3 or more donors/different studies)
13,2657 (ASAFFGMSRIGMEVT) [compound 2657],Yes (more dominant epitopes are defined by being recognized by 3 or more donors/different studies)
14,2658 (GMEVTPSGTWLTYTGAIKLD) [compound 2658],Yes (more dominant epitopes are defined by being recognized by 3 or more donors/different studies)
15,2659 (PSGTWLTYTGAIKLD) [compound 2659],Yes (more dominant epitopes are defined by being recognized by 3 or more donors/different studies)
16,2660 (GTWLTYTGAIKLDDK) [compound 2660],Yes (more dominant epitopes are defined by being recognized by 3 or more donors/different studies)
17,2661 (FKDQVILLNKHIDAY) [compound 2661],Yes (more dominant epitopes are defined by being recognized by 3 or more donors/different studies)
18,2662 (ILLNKHIDAYKTFPP) [compound 2662],Yes (more dominant epitopes are defined by being recognized by 3 or more donors/different studies)
19,2674 (QEEVQELYSPIFLIV) [compound 2674],Yes (more dominant epitopes are defined by being recognized by 3 or more donors/different studies)
